Measured values published in article PMC10584170, “Machine learning-based phenotypic imaging to characterise the targetable biology of Plasmodium falciparum male gametocytes for the development of transmission-blocking antimalarials” (PLOS Pathogens, 2023).

What was measured:
[1] = tested on: P. falciparum male gametocytes; assay: P. falciparum Dual Gamete Formation Assay (PfDGFA), male readout (exflagellation); assay type: cell-based, Plasmodium falciparum NF54; settings: for Average inhibition male (%): average of replicates; for % inhibition male (individual replicates) R1: replicate R1; for % inhibition male (individual replicates) R3: replicate R3; for % inhibition male (individual replicates) R4: replicate R4; for Activity: hit = >50% inhibition in male or female readout in at least 3 replicates, 0 = no class assigned
Outline: (§1)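 Two sex-specific readouts come from one well: male exflagellation centres recorded by brightfield video right after activation, and female gametes scored by Cy3-anti-Pfs25 fluorescence after 24 h at 28°C.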

[2] = tested on: P. falciparum female gametocytes; assay: P. falciparum Dual Gamete Formation Assay (PfDGFA), female readout (Pfs25-positive female gametes); assay type: cell-based, Plasmodium falciparum NF54; settings: for Average inhibition female (%): average of replicates; for % inhibition female (individual replicates) R1: replicate R1; for % inhibition female (individual replicates) R3: replicate R3; for % inhibition female (individual replicates) R4: replicate R4
Outline: as §1

[3] = 2µM, 24h preincubation with gametocytes prior to induction of gametogenesis
[4] = 2µM, 24h preincubation, hits selected on >50% inhibition in the male readout across replicates
[5] = PfDGFA at 2µM, 24h preincubation
[6] = 2µM, 24h preincubation, hits selected on >50% inhibition in the female readout across replicates
[7] = PfDGFA at 2µM, 24h preincubation with gametocytes prior to induction of gametogenesis
[8] = 2µM, 24h preincubation with gametocytes
[9] = 2µM, 24h preincubation, number of replicates with >50% inhibition in the male readout
[10] = 2µM, 24h preincubation, number of replicates with >50% inhibition in the female readout
[11] = PfDGFA at 2µM, 24h preincubation with gametocytes

Compound | Average inhibition male (%) [1, 3] [%] | % inhibition male (individual replicates) R1 [1, 3] [%] | % inhibition male (individual replicates) R3 [1, 3] [%] | % inhibition male (individual replicates) R4 [1, 3] [%] | Average inhibition female (%) [2, 3] [%] | % inhibition female (individual replicates) R1 [2, 3] [%] | % inhibition female (individual replicates) R3 [2, 3] [%] | % inhibition female (individual replicates) R4 [2, 3] [%] | % inhibition male (individual replicates) R1 [1, 7] [%] | % inhibition male (individual replicates) R4 [1, 7] [%] | Average inhibition male (%) [1, 5] [%] | % inhibition female (individual replicates) R1 [2, 7] [%] | % inhibition female (individual replicates) R3 [2, 7] [%] | % inhibition female (individual replicates) R4 [2, 7] [%] | Average inhibition female (%) [2, 5] [%] | other results
Nc1nc(N)c2c(Cl)c(N3CCOCC3)ccc2n1 [TCMDC-137868] | -14.2 | 5.7 | -9.7 | -52.5 | 8.8 | 9.4 | -3.6 | -2.4 |  |  |  |  |  |  |  | HitlevelM [1, 4]: 0; Activity [1, 5]: 0; HitlevelF [2, 6]: 0
Cl.Nc1nc(N)c2c(ccc3c2ccn3C2CCCCC2)n1 [TCMDC-137871] | 11.6 | 19.6 | 1.6 | -3.1 | 10.6 | -11.4 | 35.4 | 4.9 |  |  |  |  |  |  |  | HitlevelM [1, 4]: 0; Activity [1, 5]: 0; HitlevelF [2, 6]: 0
Cc1ccc2c(Cc3cnc(N)nc3N)cc(C)c(N)c2n1.Cl [TCMDC-137878] |  |  |  |  |  |  |  |  | 10.8 | 0.8 | 15.3 | 1.9 | 4.6 | 2.9 | -0.2 | 
Cl.N=C(N)NN=Cc1c2ccc(Cl)cc2c(Cl)c2ccc(Cl)cc12 [TCMDC-137884] |  |  |  |  |  |  |  |  |  |  |  |  |  |  |  | Average inhibition male (%) [1, 8]: 92.6%; % inhibition male (individual replicates) R1 [1, 8]: 97.0%; % inhibition male (individual replicates) R3 [1, 8]: 80.2%; % inhibition male (individual replicates) R4 [1, 8]: 97.6%; Average inhibition female (%) [2, 8]: 57.1%; % inhibition female (individual replicates) R1 [2, 8]: 33.5%; % inhibition female (individual replicates) R3 [2, 8]: 56.7%; % inhibition female (individual replicates) R4 [2, 8]: 75.9%
O=C(NCc1ccccc1[S+]([O-])c1ccccc1CO)C(F)(F)F (stereo not drawn) [TCMDC-137886] |  |  |  |  |  |  |  |  | 18.6 | -31.1 | -8.4 | 9.6 | -29.2 | 19.1 | 3.3 | % inhibition male (individual replicates) R3 [1, 7]: -28.2%
Cl.Nc1ncc(Cc2cc(Cl)c(N)c3ncccc23)c(N)n1 [TCMDC-137889] |  |  |  |  |  |  |  |  | 6.1 | -13.1 | -7.9 | 12.6 | -23.8 | 5.5 | -0.8 | % inhibition male (individual replicates) R3 [1, 7]: -28.8%
Cl.c1ccc2c(NCCCCCCCNc3ccnc4ccccc34)ccnc2c1 [TCMDC-137897] | 23.4 | 24.9 | -14.5 | 54.2 | 26.1 | 24.7 | -5.3 | 43.2 |  |  |  |  |  |  |  | HitlevelM [1, 9]: 1; HitlevelF [2, 10]: 0
Cl.c1ccc2c(c1)cc(CNCCCN1CCN(CCCNCc3cc4ccccc4c4ccccc34)CC1)c1ccccc12 [TCMDC-137914] | 5.2 | 10.5 | -10.9 | 23.6 | 20.8 | 24.6 | 15.0 | 14.7 |  |  |  |  |  |  |  | HitlevelM [1, 9]: 0; HitlevelF [2, 10]: 0
CCc1nc(N)nc(N)c1CCCOc1ccccc1Cl.Cl [TCMDC-137928] | -0.378 | 19.6 | 1.0 | -29.1 | 14.6 | 20.2 | 26.6 | 2.3 |  |  |  |  |  |  |  | HitlevelM [1, 4]: 0; Activity [1, 5]: 0; HitlevelF [2, 6]: 0
CCOc1cc2ccccc2cc1CNCCCCCCNCc1cc2ccccc2cc1OCC.CS(=O)(=O)O [TCMDC-137940] | -10.2 | -8.8 | -9.1 | -15.1 | 10.1 | 11.4 | 8.9 | 5.4 |  |  |  |  |  |  |  | HitlevelM [1, 4]: 0; Activity [1, 5]: 0; HitlevelF [2, 6]: 0
CCOc1c(CNCCCCCCNCc2ccc3ccccc3c2OCC)ccc2ccccc12.CS(=O)(=O)O [TCMDC-137942] |  |  |  |  |  |  |  |  |  |  |  |  |  |  |  | Average inhibition male (%) [1, 11]: 82.7%; % inhibition male (individual replicates) R1 [1, 11]: 76.8%; % inhibition male (individual replicates) R3 [1, 11]: 64.7%; % inhibition male (individual replicates) R4 [1, 11]: 98.9%; HitlevelM ([1]; number of replicates with >50% inhibition in the male readout, 2µM): 4; Average inhibition female (%) [2, 11]: 35.4%; % inhibition female (individual replicates) R1 [2, 11]: 30.1%; % inhibition female (individual replicates) R3 [2, 11]: 19.1%; % inhibition female (individual replicates) R4 [2, 11]: 50.5%; HitlevelF ([2]; number of replicates with >50% inhibition in the female readout, 2µM): 1
CCCc1cc2c3c(N)nc(N)nc3ccc2n1CC [TCMDC-137946] |  |  |  |  |  |  |  |  |  |  |  |  |  |  |  | Average inhibition male (%) [1, 8]: 95.8%; % inhibition male (individual replicates) R1 [1, 8]: 97.3%; % inhibition male (individual replicates) R3 [1, 8]: 96.2%; % inhibition male (individual replicates) R4 [1, 8]: 104.1%; Average inhibition female (%) [2, 8]: 82.6%; % inhibition female (individual replicates) R1 [2, 8]: 82.8%; % inhibition female (individual replicates) R3 [2, 8]: 88.8%; % inhibition female (individual replicates) R4 [2, 8]: 84.8%
CCCC(CC)n1ccc2c3c(N)nc(N)nc3ccc21.CS(=O)(=O)O (stereo not drawn) [TCMDC-137948] |  |  |  |  |  |  |  |  | 21.2 | 12.8 | 22.4 | -1.7 | -3.2 | -13.6 | -8.1 | % inhibition male (individual replicates) R3 [1, 7]: 21.4%
CCCC(CCC)n1ccc2c3c(N)nc(N)nc3ccc21.Cl [TCMDC-137949] |  |  |  |  |  |  |  |  | 35.5 | -40.5 | 0.9 | 4.6 | 19.1 | -10.8 | 3.5 | % inhibition male (individual replicates) R3 [1, 7]: 0.4%
